Laboratory results as given in patent US20150119363A1, “METHODS OF TREATING BACTERIAL INFECTIONS” (Rampex Pharmaceuticals, Inc., priority 2012, published 2015).

What was measured:
Test in all cases: Dose titration biapenem potentiation assay (MPC1)
Details in all cases: biapenem 1 μg/mL
[1] = tested on: KP1004 KPC-2; format: cell-based, Klebsiella pneumoniae
Description: (§1) The potency and spectrum of β-lactamase inhibitors is also determined by assessing their biapenem potentiation activity in a dose titration potentiation assay using strains expressing serine carbapemenases (such as KPC). The potentiation effect is observed as the ability of BLI compounds to inhibit growth in the presence of sub-inhibitory concentration of biapenem. […] Biapenem is present in the test medium at 1 μg/mL. Compounds tested at the highest concentration of 40 μg/mL. […] Table 5 summarizes BLI potency of biapenem potentiation (MPC1). Biapenem MIC for each strain is also shown.

[2] = tested on: KP1008 KPC-2; format: cell-based, Klebsiella pneumoniae
Description: as §1

[3] = tested on: EC1007 KPC-3; format: cell-based, Escherichia coli
Description: as §1

[4] = tested on: ECL1004 NMC-A; format: cell-based, Enterobacter cloacae
Description: as §1

Row | SMILES | BPM MPC1 KP1004 KPC-2 [1] | BPM MPC1 KP1008 KPC-2 [2] | BPM MPC1 EC1007 KPC-3 [3] | BPM MPC1 ECL1004 NMC-A [4]
1 | N[C@H](C(=O)N[C@H]1CC[C@@H](CC(=O)O)OB1O)c1ccccc1 [Compound 33, 2-((3R,6S)-3-((S)-2-amino-2-phenylacetamido)-2-hydroxy-1,2-oxaborinan-6-yl)acetic acid] | X (X = MPC1 of less than 1 μg/mL.) | X (X = MPC1 of less than 1 μg/mL.) | X (X = MPC1 of less than 1 μg/mL.) | X (X = MPC1 of less than 1 μg/mL.)
2 | NCCC(=O)N[C@H]1CC[C@@H](CC(=O)O)OB1O [Compound 34, 2-((3R,6S)-3-(3-aminopropanamido)-2-hydroxy-1,2-oxaborinan-6-yl)acetic acid] | X (X = MPC1 of less than 1 μg/mL.) | X (X = MPC1 of less than 1 μg/mL.) | X (X = MPC1 of less than 1 μg/mL.) | Y (Y = MPC1 of 1 μg/mL to 5 μg/mL.)
3 | N[C@@H](CCC(=O)N[C@H]1CC[C@@H](CC(=O)O)OB1O)C(=O)O [Compound 35, (S)-2-amino-5-((3R,6S)-6-(carboxymethyl)-2-hydroxy-1,2-oxaborinan-3-ylamino)-5-oxopentanoic acid] | X (X = MPC1 of less than 1 μg/mL.) | X (X = MPC1 of less than 1 μg/mL.) | X (X = MPC1 of less than 1 μg/mL.) | Y (Y = MPC1 of 1 μg/mL to 5 μg/mL.)
4 | CC(C)(O/N=C(\C(=O)N[C@H]1CC[C@@H](CC(=O)O)OB1O)c1csc(N)n1)C(=O)O [Compound 36, 2-((Z)-1-(2-aminothiazol-4-yl)-2-((3R,6S)-6-(carboxymethyl)-2-hydroxy-1,2-oxaborinan-3-ylamino)-2-oxoethylideneaminooxy)-2-methylpropanoic acid] | Z (Z = MPC1 of greater than 5 μg/mL.) | X (X = MPC1 of less than 1 μg/mL.) | Y (Y = MPC1 of 1 μg/mL to 5 μg/mL.) | X (X = MPC1 of less than 1 μg/mL.)
5 | O=C(O)C[C@@H]1CC[C@H](NC(=O)c2ccccc2)B(O)O1 [Compound 37, 2-((3R,6S)-3-benzamido-2-hydroxy-1,2-oxaborinan-6-yl)acetic acid] | X (X = MPC1 of less than 1 μg/mL.) | X (X = MPC1 of less than 1 μg/mL.) | X (X = MPC1 of less than 1 μg/mL.) | X (X = MPC1 of less than 1 μg/mL.)
6 | O=C(O)C[C@@H]1CC[C@H](NC(=O)CCc2ccccc2)B(O)O1 [Compound 38, 2-((3R,6S)-2-hydroxy-3-(3-phenylpropanamido)-1,2-oxaborinan-6-yl)acetic acid] | X (X = MPC1 of less than 1 μg/mL.) | X (X = MPC1 of less than 1 μg/mL.) | X (X = MPC1 of less than 1 μg/mL.) | X (X = MPC1 of less than 1 μg/mL.)
7 | Nc1nc(CC(=O)N[C@H]2CC[C@@H](CC(=O)O)OB2O)cs1 [Compound 39, 2-((3R,6S)-3-(2-(2-aminothiazol-4-yl)acetamido)-2-hydroxy-1,2-oxaborinan-6-yl)acetic acid] | X (X = MPC1 of less than 1 μg/mL.) | X (X = MPC1 of less than 1 μg/mL.) | X (X = MPC1 of less than 1 μg/mL.) | X (X = MPC1 of less than 1 μg/mL.)
8 | CO/N=C(\C(=O)N[C@H]1CC[C@@H](CC(=O)O)OB1O)c1csc(N)n1 [Compound 40, 2-((3R,6S)-3-((Z)-2-(2-aminothiazol-4-yl)-2-(methoxyimino)acetamido)-2-hydroxy-1,2-oxaborinan-6-yl)acetic acid] | Y (Y = MPC1 of 1 μg/mL to 5 μg/mL.) | X (X = MPC1 of less than 1 μg/mL.) | Y (Y = MPC1 of 1 μg/mL to 5 μg/mL.) | Y (Y = MPC1 of 1 μg/mL to 5 μg/mL.)
9 | CSCCC(N)C(=O)N[C@H]1CC[C@@H](CC(=O)O)OB1O (stereo partly drawn) [Compound 41, 2-((3R,6S)-3-(2-amino-4-(methylthio)butanamido)-2-hydroxy-1,2-oxaborinan-6-yl)acetic acid] | X (X = MPC1 of less than 1 μg/mL.) | X (X = MPC1 of less than 1 μg/mL.) | X (X = MPC1 of less than 1 μg/mL.) | Y (Y = MPC1 of 1 μg/mL to 5 μg/mL.)
10 | NC(Cc1cccnc1)C(=O)N[C@H]1CC[C@@H](CC(=O)O)OB1O (stereo partly drawn) [Compound 42, 2-((3R,6S)-3-(2-amino-3-(pyridin-3-yl)propanamido)-2-hydroxy-1,2-oxaborinan-6-yl)acetic acid] | X (X = MPC1 of less than 1 μg/mL.) | X (X = MPC1 of less than 1 μg/mL.) | X (X = MPC1 of less than 1 μg/mL.) | Y (Y = MPC1 of 1 μg/mL to 5 μg/mL.)
11 | O=C(O)C[C@@H]1CC[C@H](NC(=O)Cc2cccnc2)B(O)O1 [Compound 43, 2-((3R,6S)-2-hydroxy-3-(2-(pyridin-3-yl)acetamido)-1,2-oxaborinan-6-yl)acetic acid] | X (X = MPC1 of less than 1 μg/mL.) | X (X = MPC1 of less than 1 μg/mL.) | X (X = MPC1 of less than 1 μg/mL.) | X (X = MPC1 of less than 1 μg/mL.)
12 | N[C@H](CCCN/C(=N/C(=O)OCc1ccccc1)NC(=O)OCc1ccccc1)C(=O)N[C@H]1CC[C@@H](CC(=O)O)OB1O [Compound 44, 2-((3R,6S)-3-((R)-2-amino-5-((Z)-2,3-bis(benzyloxycarbonyl)guanidino)pentanamido)-2-hydroxy-1,2-oxaborinan-6-yl)acetic acid] | X (X = MPC1 of less than 1 μg/mL.) | X (X = MPC1 of less than 1 μg/mL.) | X (X = MPC1 of less than 1 μg/mL.) | Y (Y = MPC1 of 1 μg/mL to 5 μg/mL.)
13 | O=C(O)C[C@@H]1CC[C@H](NC(=O)[C@@H]2CCCCN2)B(O)O1 [Compound 45, 2-((3R,6S)-2-hydroxy-3-((S)-piperidine-2-carboxamido)-1,2-oxaborinan-6-yl)acetic acid] | Y (Y = MPC1 of 1 μg/mL to 5 μg/mL.) | X (X = MPC1 of less than 1 μg/mL.) | X (X = MPC1 of less than 1 μg/mL.) | Z (Z = MPC1 of greater than 5 μg/mL.)
14 | O=C(O)C[C@@H]1CC[C@H](NC(=O)[C@H]2Cc3ccccc3CN2)B(O)O1 [Compound 46, 2-((3R,6S)-2-hydroxy-3-((R)-1,2,3,4-tetrahydroisoquinoline-3-carboxamido)-1,2-oxaborinan-6-yl)acetic acid] | X (X = MPC1 of less than 1 μg/mL.) | X (X = MPC1 of less than 1 μg/mL.) | X (X = MPC1 of less than 1 μg/mL.) | X (X = MPC1 of less than 1 μg/mL.)
15 | N=C(N)NCCC[C@@H](N)C(=O)N[C@H]1CC[C@@H](CC(=O)O)OB1O [Compound 47] | Y (Y = MPC1 of 1 μg/mL to 5 μg/mL.) | X (X = MPC1 of less than 1 μg/mL.) | X (X = MPC1 of less than 1 μg/mL.) | Z (Z = MPC1 of greater than 5 μg/mL.)
16 | NCCSCC(=O)N[C@H]1CC[C@@H](CC(=O)O)OB1O [Compound 48, 2-((3R,6S)-3-(2-(2-aminoethylthio)acetamido)-2-hydroxy-1,2-oxaborinan-6-yl)acetic acid] | X (X = MPC1 of less than 1 μg/mL.) | X (X = MPC1 of less than 1 μg/mL.) | X (X = MPC1 of less than 1 μg/mL.) | X (X = MPC1 of less than 1 μg/mL.)
17 | O=C(O)C[C@@H]1CC[C@H](NC(=O)Cc2ccncc2)B(O)O1 [Compound 49, 2-((3R,6S)-2-hydroxy-3-(2-(pyridin-4-yl)acetamido)-1,2-oxaborinan-6-yl)acetic acid] | X (X = MPC1 of less than 1 μg/mL.) | X (X = MPC1 of less than 1 μg/mL.) | X (X = MPC1 of less than 1 μg/mL.) | X (X = MPC1 of less than 1 μg/mL.)
18 | N[C@H]1CC[C@@H](CC(=O)N[C@H]2CC[C@@H](CC(=O)O)OB2O)CC1 [Compound 50, 2-((3R,6S)-3-(2-(4-aminocyclohexyl)acetamido)-2-hydroxy-1,2-oxaborinan-6-yl)acetic acid] | X (X = MPC1 of less than 1 μg/mL.) | X (X = MPC1 of less than 1 μg/mL.) | X (X = MPC1 of less than 1 μg/mL.) | X (X = MPC1 of less than 1 μg/mL.)
19 | O=C(O)C[C@@H]1CC[C@H](NC(=O)c2cn(C3CC3)c3cc(N4CCNCC4)c(F)cc3c2=O)B(O)O1 [Compound 58, 2-((3R,6S)-3-(1-cyclopropyl-6-fluoro-4-oxo-7-(piperazin-1-yl)-1,4-dihydroquinoline-3-carboxamido)-2-hydroxy-1,2-oxaborinan-6-yl)acetic acid] | Z (Z = MPC1 of greater than 5 μg/mL.) | Z (Z = MPC1 of greater than 5 μg/mL.) |  | Z (Z = MPC1 of greater than 5 μg/mL.)
20 | Nc1cc(CC(=O)N[C@H]2CC[C@@H](CC(=O)O)OB2O)ccn1 [Compound 61, 2-((3R,6S)-3-(2-(2-aminopyridin-4-yl)acetamido)-2-hydroxy-1,2-oxaborinan-6-yl)acetic acid] | X (X = MPC1 of less than 1 μg/mL.) | X (X = MPC1 of less than 1 μg/mL.) |  | X (X = MPC1 of less than 1 μg/mL.)
